Test results taken from PubChem BioAssay (NCI).
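Following 48 hours of exposure in 96-well plates, responses at five concentrations were used to interpolate endpoints linearly. The concentration for 50% growth inhibition is given as GI50. TGI: concentration producing complete growth inhibition.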

How the values were obtained:
Test in all cases: NCI-60 cell line screen, 48 h
NCI-H522 lung = test system: NCI-H522 lung
MDA-N = test system: MDA-N
SF-268 CNS = test system: SF-268 CNS
HCT-116 colon = test system: HCT-116 colon
OVCAR-8 ovarian = test system: OVCAR-8 ovarian
IGROV1 ovarian = test system: IGROV1 ovarian
EKVX NSCLC = test system: EKVX NSCLC
HOP-92 NSCLC = test system: HOP-92 NSCLC

COC(=O)[C@@H]1O[C@]12[C@@H](CO[Si](C)(C)C(C)(C)C)O[C@@H](n1cc(C)c(=O)[nH]c1=O)[C@@H]2O[Si](C)(C)C(C)(C)C
TGI (NCI-H522 lung): 30.1 µM | TGI (MDA-N): 27.6 µM | TGI (SF-268 CNS): 38 µM | TGI (HCT-116 colon): 29.9 µM | TGI (OVCAR-8 ovarian): 53.4 µM | TGI (IGROV1 ovarian): 21.6 µM | TGI (EKVX NSCLC): 53.6 µM

c1cc2ccc1CNCCN1CCNCc3ccc(cc3)Oc3ccc(cc3)CNCCN(CCNCc3ccc(cc3)O2)CCNCc2ccc(cc2)Oc2ccc(cc2)CNCC1
GI50 (HOP-92 NSCLC): 0.0202 µM | TGI (HOP-92 NSCLC): 0.0501 µM
